Experimental data reported in patent publication EP4799701A2, “PYRIMID-2-YL-PYRAZOLE COMPOUNDS AS IRAK INHIBITORS” (Rigel Pharmaceuticals, Inc., priority 2022, dated 2023).

Test system: TLR4-induced IL-23 and TNF-α
Assay: TLR4 induced TNF-α in THP-1 cells
Format: cell-based
Details: human THP-1 cells; result in words
Experimental: Assay Protocol: TLR4 and TLR2 induced cytokines in THP-1 cells. […]
THP-1 cells (100K in 100 µL/well) were primed with 25 ng/mL IFN-γ for 18 hours at 37°C, 5% CO2. […] IL-23p 19 or TNF-α protein in the supernatant were measured by sandwich ELISA. […] The plates were read with a luminometer, and the chemiluminescence values were entered into Athena (Rigel) for curve fitting, EC50 calculation, and database storage.

CCO[C@H]1CC[C@H](n2cc(NC(=O)c3csc(-c4cn[nH]c4)n3)c(-c3ncccn3)n2)CC1 [Compound I-1, N-(1-((1r,4r)-4-ethoxycyclohexyl)-3-(pyrimidin-2-yl)-1H-pyrazol-4-yl)-2-(1H-pyrazol-4-yl)thiazole-4-carboxamide]
TLR4-induced TNF-α production: inhibits
